Consider 1 substance from patent US10532085B2, “Methods for increasing intracellular activity of Hsp70” (Orphazyme A/S, priority 2010, dated 2020).

Assay [1] has as its system primary fibroblasts from Mucopolysaccharidosis type IIIA patient. The assay can be described thus: Lysosomal cross-sectional area, laser confocal microscopy, MPS IIIA fibroblasts. The format is cell-based, human. The conditions noted are these: Alexa Fluor 488 labelled, added for 48 h; GM00879. On the procedure:
FIG. 8: Test of rhHSP70 in non-sphingolipidosis. rhHSP70 labelled with Alexa Fluor 488 (for visualization of uptake) was added for 48 h to primary fibroblasts from Mucopolysaccharidosis type IIIA (aka Sanfilippo type IIIA) patient (Coriell Cell Repository ID: GM00879). Read-out: lysosomal cross-sectional area (Primary cellular pathology), performed by laser confocal microscopy.

Assay [2] deals with U-2-OS osteosarcoma cells. The assay can be described thus: Uptake and localization of fluorochrome-labeled recombinant protein. The class given is cell-based, Human. The conditions noted are these: 300 nM rHsp70-AF488, 24 h. On the procedure: FIG. 2: Lysosomal Hsp70 stabilizes lysosomal membranes. (a) Representative confocal images of U-2-OS cells incubated with 300 nM rHsp70-AF488 (green) for 24 h, fixed and stained for lysosomal integral membrane protein-1 (LIMP-1; red). For co-localization with other organelle markers see FIG. 3. (b) U-2-OS cells were incubated with 300 nM rHsp70-AF488 for 24 h before quantification of rHsp70-AF488 in membranes (memb.) and supernatant (sup.) obtained by repeated freeze/thaw cycles and centrifugation the light membrane fraction (LMF). […] (c) Representative still images of U-2-OS cells exposed to photo-oxidation (acridine orange and blue light). The loss of lysosomal integrity is visualized by the loss of red and increase in green staining. (d and e) U-2-OS cells were incubated with indicated recombinant proteins (300 nM) for 24 h, and analyzed for lysosomal integrity upon photo-oxidation. When indicated, cells were treated with indicated siRNAs for 48 h prior to the addition of recombinant proteins (e). The values represent means±SD (standard deviation) for three (d) or five (e) independent experiments. Representative immunoblots of indicated proteins from U-2-OS cells left untreated or treated with control or Hsp70 siRNAs are shown on the right. Scale bars: 20 μm (a and c).
FIG. 3: Colocalization of endocytosed rHsp70-AF488 with lysosomes. […]

Assay [3] in a line: Liposome 90° light scattering, BMP. The format is binding. Conditions: pH 6.0 vs pH 7.4. From the text: (§1) Thus, we investigated the interaction of Hsp70 with palmitoyl-oleoyl-phosphatidylcholine (POPC) large unilamellar vesicles (LUVs) containing various membrane-associated anionic lipids, i.e. palmitoyl-oleoyl-phosphatidylserine (POPS; primarily in plasma membrane), cardiolipin (primarily mitochondrial) and BMP (primarily in late endosomes/lysosomes). Taking into account the increasingly acidic milieu of the endo-lysosomal compartment upon maturation to lysosomes, we compared the protein-lipid interactions in neutral (pH 7.4) and acidic (pH 6.0) conditions. […] As reported earlier for POPS, all negatively charged lipids enhanced the binding of rHsp70 to the liposomes at neutral pH approximately 4-fold irrespective of the charge density on the liposome surface (ranging from −1 to −2).
(§2) The tryptophan fluorescence spectra (RFI) and liposome 90° light scattering (RSI) were analyzed in a HEPES buffer (20 mM HEPES, 0.1 mM EDTA, pH 7.4 or 6.0 as indicated) employing LUVs consisting of indicated lipids essentially as described in the art. For the RFI, LUVs were added in 10 μM aliquots and spectra recorded after a 20 min stabilization period. For the RSI, recombinant proteins were added in 0.12 nmol aliquots.

Assay [4] is described as follows: Liposome 90° light scattering, POPS. The class given is binding. Conditions: pH 6.0 vs pH 7.4.
Excerpt: as §1, §2

For assay [5], the system named is NPC−/− mice. The assay can be described thus: NPC1 in vivo pilot study: gait analysis. Conditions: 10 mg/kg IP three times per week. On the procedure: (§3) Eight treated (rHSP70) NPC^−/− versus eight control (PBS only) NPC^−/− controls. Mice were treated IP three times per week with either 10 mg/kg of rHSP70 or vehicle alone (PBS) from 3 weeks of age. Three control and three treated mice were sacrificed at 7 or 9 weeks old (i.e. after 4 or 6 weeks of treatment, respectively). Organs were perfused (PBS), weighed and frozen for biochemical and immunohistochemical analysis.
Behavioural experiments were performed from 3 weeks of age, as described previously. Briefly, tremor analysis was performed using an automated tremor monitor (San Diego instruments) Gait analysis was performed by painting front and hind paws with non-toxic paint and allowing the mice to walk over Whatman 3M paper. Paw placement was measured to determine how closely their hind paws superimposed their front paws, the length of the stride and the width of their gait.

Assay [6] relates to NPC−/− mice. The assay can be described thus: NPC1 in vivo pilot study: tissue cholesterol (Amplex Red Cholesterol Assay). The method, then: as §3
(§4) Organs were homogenised without any added buffer and frozen as 10 ul aliquots. Fresh aliquots were reconstituted to 100 ul with PBS prior to biochemical analysis. Protein determination for each aliquot was performed by BCA protein assay. Cholesterol assays were performed using the Amplex Red Cholesterol Assay from Invitrogen^i. Sphingosine was isolated by sphingoid base extraction and analysed by HPLC^i. GSLs were extracted and analysed by fluorescent HPLC^i. All results were standardised for protein content.

Assay [7] has as its system NPC−/− mice. Put plainly: NPC1 in vivo pilot study: brain sphingosine (HPLC). On the procedure:
as §3, §4

As for “rHsp70: recombinant (human) heat shock protein 70; in some tests labelled with Alexa Fluor 488”, in assay [1], the “lysosomal cross-sectional area (primary cellular pathology)” value is “effectively reverts the lysosomal primary pathology”. For the same substance, the “uptake, co-localization and membrane binding” value in assay [2] is “effective uptake of rHsp70, its specific co-localization with late endosomal and lysosomal markers and binding to lysosomal membranes”. Also, the “binding to BMP at acidic pH as compared to neutral pH” value in assay [3] is on record as around 20 times. For the same substance, the “binding to POPS upon acidification” value in assay [4] is listed as “only slightly increased”. For the same substance, the “gait (front:hind paw placement, stride length, gait width)” value in the assay on NPC−/− mice [5] is recorded as “no difference”. In addition, the “cholesterol in peripheral tissue” value with NPC−/− mice [6] (7 week time point, compared to control) is given as “significant decreases”. Moreover, the brain cholesterol result in the assay on NPC−/− mice [6] (7 week time point, done in triplicate) is listed as “decrease, although the decrease only occurred in one repeat of the experiment”. Further, the cholesterol result with NPC−/− mice [6] (9 week time point) is “no difference”. Also, the sphingosine in brain result was “no significant difference” in the assay with NPC−/− mice [7] (7 week) and “slight, yet significant (p<0.005, **) increased levels of sphingosine” with NPC−/− mice [7] (9 week).
